pIC50: −log10 of the molar value. Where “and” joins values, the source holds several entries; their conditions need not be identical. Equal entries are not always repeated. Values belong to the molecule of their own block, whether it stands above or below them.
Test system: 993429-296-R-J1-PDC complex spheroid growth, percent test/control
Experiment: Anticancer human tumor 993429-296-R-J1-PDC patient-derived uterine sarcoma cell line growth inhibition [Asc]
Details: for viability, T/C: stronger effect = lower value
Procedure, shortened: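 Stromal components (HUVEC and hMSC) are co-assembled with the cancer cells into multicellular spheroids. Drugs are then added singly or paired, at concentrations falling by half-log increments from a clinically achievable maximum, capped at 10 microM without known Cmax.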

[1] = curve of first compound, second compound 0.03 µM
[2] = curve of first compound, second compound 0.0949 µM
[3] = curve of first compound, second compound 0.3 µM
[4] = curve of first compound, second compound 0.949 µM
[5] = curve of first compound, second compound 3 µM
[6] = curve of first compound, second compound 0.01 µM
[7] = curve of first compound, second compound 0.0316 µM
[8] = curve of first compound, second compound 0.1 µM
[9] = curve of first compound, second compound 0.316 µM
[10] = curve of first compound, second compound 1 µM
[11] = second compound 0.01 µM, first compound 0.00316 µM
[12] = second compound 0.01 µM, first compound 0.01 µM
[13] = second compound 0.01 µM, first compound 0.0316 µM
[14] = second compound 0.01 µM, first compound 0.1 µM
[15] = second compound 0.01 µM, first compound 0.316 µM
[16] = second compound 0.01 µM, first compound 1 µM
[17] = second compound 0.0316 µM, first compound 0.00316 µM
[18] = second compound 0.0316 µM, first compound 0.01 µM
[19] = second compound 0.0316 µM, first compound 0.0316 µM
[20] = second compound 0.0316 µM, first compound 0.1 µM
[21] = second compound 0.0316 µM, first compound 0.316 µM
[22] = second compound 0.0316 µM, first compound 1 µM
[23] = second compound 0.1 µM, first compound 0.00316 µM
[24] = second compound 0.1 µM, first compound 0.01 µM
[25] = second compound 0.1 µM, first compound 0.0316 µM
[26] = second compound 0.1 µM, first compound 0.1 µM
[27] = second compound 0.1 µM, first compound 0.316 µM
[28] = second compound 0.1 µM, first compound 1 µM
[29] = second compound 0.316 µM, first compound 0.00316 µM
[30] = second compound 0.316 µM, first compound 0.01 µM
[31] = second compound 0.316 µM, first compound 0.0316 µM
[32] = second compound 0.316 µM, first compound 0.1 µM
[33] = second compound 0.316 µM, first compound 0.316 µM
[34] = second compound 0.316 µM, first compound 1 µM
[35] = second compound 1 µM, first compound 0.00316 µM
[36] = second compound 1 µM, first compound 0.01 µM
[37] = second compound 1 µM, first compound 0.0316 µM
[38] = second compound 1 µM, first compound 0.1 µM
[39] = second compound 1 µM, first compound 0.316 µM
[40] = second compound 1 µM, first compound 1 µM
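Also: spheroids exposed to compounds for seven days.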

SMILES: CCN1CCN(Cc2ccc(Nc3ncc(F)c(-c4cc(F)c5nc(C)n(C(C)C)c5c4)n3)nc2)CC1 + CCN1C(C(=O)NC23CCC(C(=O)O)(CC2)CC3)C(c2cccc(Cl)c2F)C2(C(=O)Nc3cc(Cl)ccc32)C12CCCCC2
pIC50 [1]: < 6.00
pIC50 [2]: < 6.00
pIC50 [3]: < 6.00
pIC50 [4]: < 6.00
pIC50 [5]: < 6.00
viability, T/C (second compound 0.03 µM, first compound 0.00316 µM): 101%
viability, T/C (second compound 0.03 µM, first compound 0.01 µM): 98.5%
viability, T/C (second compound 0.03 µM, first compound 0.0316 µM): 102%
viability, T/C (second compound 0.03 µM, first compound 0.1 µM): 110%
viability, T/C (second compound 0.03 µM, first compound 0.316 µM): 103%
viability, T/C (second compound 0.03 µM, first compound 1 µM): 125%
viability, T/C (second compound 0.0949 µM, first compound 0.00316 µM): 99.8%
viability, T/C (second compound 0.0949 µM, first compound 0.01 µM): 107%
viability, T/C (second compound 0.0949 µM, first compound 0.0316 µM): 97.3%
viability, T/C (second compound 0.0949 µM, first compound 0.1 µM): 95.5%
viability, T/C (second compound 0.0949 µM, first compound 0.316 µM): 110%
viability, T/C (second compound 0.0949 µM, first compound 1 µM): 98.3%
viability, T/C (second compound 0.3 µM, first compound 0.00316 µM): 102%
viability, T/C (second compound 0.3 µM, first compound 0.01 µM): 105%
viability, T/C (second compound 0.3 µM, first compound 0.0316 µM): 89.5%
viability, T/C (second compound 0.3 µM, first compound 0.1 µM): 109%
viability, T/C (second compound 0.3 µM, first compound 0.316 µM): 120%
viability, T/C (second compound 0.3 µM, first compound 1 µM): 104%
viability, T/C (second compound 0.949 µM, first compound 0.00316 µM): 103%
viability, T/C (second compound 0.949 µM, first compound 0.01 µM): 99.5%
viability, T/C (second compound 0.949 µM, first compound 0.0316 µM): 106%
viability, T/C (second compound 0.949 µM, first compound 0.1 µM): 99.9%
viability, T/C (second compound 0.949 µM, first compound 0.316 µM): 107%
viability, T/C (second compound 0.949 µM, first compound 1 µM): 131%
viability, T/C (second compound 3 µM, first compound 0.00316 µM): 97.2%
viability, T/C (second compound 3 µM, first compound 0.01 µM): 92.9%
viability, T/C (second compound 3 µM, first compound 0.0316 µM): 99.7%
viability, T/C (second compound 3 µM, first compound 0.1 µM): 77.8%
viability, T/C (second compound 3 µM, first compound 0.316 µM): 84.5%
viability, T/C (second compound 3 µM, first compound 1 µM): 115%

SMILES: Cc1nc(N2CCC3(CC2)COC(C)C3N)c(CO)nc1Sc1ccnc(N)c1Cl (configuration not stated)
viability, T/C (compound 0.00949 µM): 94.6% and 84.2% and 83.6%
viability, T/C (compound 0.03 µM): 93.1% and 77% and 87.6%
viability, T/C (compound 0.0949 µM): 75.2% and 65.9% and 54.9%
viability, T/C (compound 0.3 µM): 58.9% and 43% and 42.1%
viability, T/C (compound 0.949 µM): 49% and 32.2% and 34.5%
viability, T/C (compound 3 µM): 40.3% and 25.8% and 27.8%
pIC50 (curve of compound): 6.15 and 6.67 and 6.84

SMILES: Cc1nc(N2CCC3(CC2)COC(C)C3N)c(CO)nc1Sc1ccnc(N)c1Cl (configuration not stated) + CCN1C(C(=O)NC23CCC(C(=O)O)(CC2)CC3)C(c2cccc(Cl)c2F)C2(C(=O)Nc3cc(Cl)ccc32)C12CCCCC2
pIC50 [1]: 6.68
pIC50 [2]: 6.80
pIC50 [3]: 6.75
pIC50 [4]: 6.84
pIC50 [5]: 6.98
viability, T/C (second compound 0.03 µM, first compound 0.00949 µM): 89.3%
viability, T/C (second compound 0.03 µM, first compound 0.03 µM): 86.2%
viability, T/C (second compound 0.03 µM, first compound 0.0949 µM): 68.7%
viability, T/C (second compound 0.03 µM, first compound 0.3 µM): 41.5%
viability, T/C (second compound 0.03 µM, first compound 0.949 µM): 33.3%
viability, T/C (second compound 0.03 µM, first compound 3 µM): 29.6%
viability, T/C (second compound 0.0949 µM, first compound 0.00949 µM): 92.5%
viability, T/C (second compound 0.0949 µM, first compound 0.03 µM): 71.7%
viability, T/C (second compound 0.0949 µM, first compound 0.0949 µM): 65.2%
viability, T/C (second compound 0.0949 µM, first compound 0.3 µM): 35.3%
viability, T/C (second compound 0.0949 µM, first compound 0.949 µM): 30.2%
viability, T/C (second compound 0.0949 µM, first compound 3 µM): 29.2%
viability, T/C (second compound 0.3 µM, first compound 0.00949 µM): 87.7%
viability, T/C (second compound 0.3 µM, first compound 0.03 µM): 79.8%
viability, T/C (second compound 0.3 µM, first compound 0.0949 µM): 59%
viability, T/C (second compound 0.3 µM, first compound 0.3 µM): 42.6%
viability, T/C (second compound 0.3 µM, first compound 0.949 µM): 29.2%
viability, T/C (second compound 0.3 µM, first compound 3 µM): 26.8%
viability, T/C (second compound 0.949 µM, first compound 0.00949 µM): 86.7%
viability, T/C (second compound 0.949 µM, first compound 0.03 µM): 68.5%
viability, T/C (second compound 0.949 µM, first compound 0.0949 µM): 55.9%
viability, T/C (second compound 0.949 µM, first compound 0.3 µM): 43.1%
viability, T/C (second compound 0.949 µM, first compound 0.949 µM): 27.6%
viability, T/C (second compound 0.949 µM, first compound 3 µM): 22.9%
viability, T/C (second compound 3 µM, first compound 0.00949 µM): 75.2%
viability, T/C (second compound 3 µM, first compound 0.03 µM): 69.9%
viability, T/C (second compound 3 µM, first compound 0.0949 µM): 50.1%
viability, T/C (second compound 3 µM, first compound 0.3 µM): 34%
viability, T/C (second compound 3 µM, first compound 0.949 µM): 28.8%
viability, T/C (second compound 3 µM, first compound 3 µM): 21.6%

Continued, in another order:

pIC50 [6]: 7.79
pIC50 [7]: 8.03
pIC50 [8]: 7.92
pIC50 [9]: 8.27
pIC50 [10]: 8.39
SMILES: COc1c(OCCCN2CCOCC2)ccc2c3n(c(=NC(=O)c4cnc(N)nc4)nc12)CCN3 + CNC(C)C(=O)NC1CN(S(=O)(=O)c2cccc(S(=O)(=O)N3CCC4CCC(C(=O)NC(c5ccccc5)c5ccccc5)N4C(=O)C(NC(=O)C(C)NC)C3)c2)CCC2CCC(C(=O)NC(c3ccccc3)c3ccccc3)N2C1=O
viability, T/C [11]: 68.8%
viability, T/C [12]: 60.1%
viability, T/C [13]: 36.4%
viability, T/C [14]: 12.3%
viability, T/C [15]: 3.69%
viability, T/C [16]: 1.21%
viability, T/C [17]: 54.7%
viability, T/C [18]: 50%
viability, T/C [19]: 32.9%
viability, T/C [20]: 12.4%
viability, T/C [21]: 4.55%
viability, T/C [22]: 1.09%
viability, T/C [23]: 57.1%
viability, T/C [24]: 56.9%
viability, T/C [25]: 29.9%
viability, T/C [26]: 12.2%
viability, T/C [27]: 3.36%
viability, T/C [28]: 1.18%
viability, T/C [29]: 58%
viability, T/C [30]: 39.8%
viability, T/C [31]: 24.5%
viability, T/C [32]: 8.8%
viability, T/C [33]: 3.2%
viability, T/C [34]: 1.42%
viability, T/C [35]: 52.4%
viability, T/C [36]: 41.6%
viability, T/C [37]: 24.8%
viability, T/C [38]: 11.3%
viability, T/C [39]: 4.7%
viability, T/C [40]: 0.9%

pIC50 [6]: < 6.00
pIC50 [7]: < 6.00
pIC50 [8]: < 6.00
pIC50 [9]: > 8.50
pIC50 [10]: < 6.00
SMILES: CCN1CCN(Cc2ccc(Nc3ncc(F)c(-c4cc(F)c5nc(C)n(C(C)C)c5c4)n3)nc2)CC1 + CNC(C)C(=O)NC1CN(S(=O)(=O)c2cccc(S(=O)(=O)N3CCC4CCC(C(=O)NC(c5ccccc5)c5ccccc5)N4C(=O)C(NC(=O)C(C)NC)C3)c2)CCC2CCC(C(=O)NC(c3ccccc3)c3ccccc3)N2C1=O
viability, T/C [11]: 58.4%
viability, T/C [12]: 66.1%
viability, T/C [13]: 64%
viability, T/C [14]: 68.4%
viability, T/C [15]: 67.7%
viability, T/C [16]: 76%
viability, T/C [17]: 54.1%
viability, T/C [18]: 63.4%
viability, T/C [19]: 59.5%
viability, T/C [20]: 53.6%
viability, T/C [21]: 71.4%
viability, T/C [22]: 77.4%
viability, T/C [23]: 52%
viability, T/C [24]: 54%
viability, T/C [25]: 56.2%
viability, T/C [26]: 54%
viability, T/C [27]: 59.8%
viability, T/C [28]: 62.4%
viability, T/C [29]: 45.3%
viability, T/C [30]: 46.2%
viability, T/C [31]: 41%
viability, T/C [32]: 53.2%
viability, T/C [33]: 69%
viability, T/C [34]: 70%
viability, T/C [35]: 53.5%
viability, T/C [36]: 58.7%
viability, T/C [37]: 38.9%
viability, T/C [38]: 51.4%
viability, T/C [39]: 49.6%
viability, T/C [40]: 60.3%
